Data from paper PMC3344887 (PLoS ONE, 2012).
Where “and” joins values, the source holds several entries; their conditions need not be identical. Equal entries are not always repeated. Where two headings read alike, the source gives them in different places.

Experiments:
[1] = cited from earlier work; for Mean plasma Cmax: healthy volunteers
healthy subjects [2] = assay: Physiologic measures (blood pressure, heart rate, body temperature), clinical study; type: in vivo, humans; conditions: peak change from baseline, mean±SEM, 16 subjects
Experimental: (§1) The washout periods between the sessions were at least 10 days long.
(§2) Identical placebo (lactose) capsules were prepared. […] Drugs were administered without food.
(§3) Physiologic measures were assessed repeatedly 4, 3, 2, and 1 h before and 0, 0.33, 0.66, 1, 1.5, 2, 2.5, 3, 4, 5, and 6 h after MDMA or placebo administration. Heart rate, systolic blood pressure, and diastolic blood pressure were measured using an OMRON M7 blood pressure monitor (OMRON Healthcare Europe, Hoofddorp, The Netherlands). Measures were taken twice per time point with an interval of 1 min, and the average was used for the analysis. Core (tympanic) temperature was assessed using a GENIUS 2 ear thermometer (Tyco Healthcare Group, Watertown, NY). […] Adverse effects were assessed using the List of Complaints (LC), which consists of 66 items that yield a total adverse effects score and reliably measure physical and general discomfort.
(§4) Clinical data values were transformed to differences from baseline. Peak effects (Emax) were determined for repeated measures. Emax values were compared using General Linear Models repeated-measures analysis of variance, with drug as within-subject factor, using Statistica 6.0 software (StatSoft, Tulsa, OK). Tukey post hoc comparisons were performed based on significant main effects of treatment. Additional analyses of variance were performed, with period as factor to exclude period effects. Correlation analyses were performed using Pearson’s correlations. The criterion for significance was p<0.05. Mean arterial pressure (MAP) was calculated from diastolic blood pressure and systolic blood pressure using the following formula: MAP = DBP+(SBP - DBP)/3.

NE transporter [3] = conditions: cited from earlier work
SERT = SERT (Homo sapiens, UniProt P31645)
SERT, sequence (P31645 whole entry): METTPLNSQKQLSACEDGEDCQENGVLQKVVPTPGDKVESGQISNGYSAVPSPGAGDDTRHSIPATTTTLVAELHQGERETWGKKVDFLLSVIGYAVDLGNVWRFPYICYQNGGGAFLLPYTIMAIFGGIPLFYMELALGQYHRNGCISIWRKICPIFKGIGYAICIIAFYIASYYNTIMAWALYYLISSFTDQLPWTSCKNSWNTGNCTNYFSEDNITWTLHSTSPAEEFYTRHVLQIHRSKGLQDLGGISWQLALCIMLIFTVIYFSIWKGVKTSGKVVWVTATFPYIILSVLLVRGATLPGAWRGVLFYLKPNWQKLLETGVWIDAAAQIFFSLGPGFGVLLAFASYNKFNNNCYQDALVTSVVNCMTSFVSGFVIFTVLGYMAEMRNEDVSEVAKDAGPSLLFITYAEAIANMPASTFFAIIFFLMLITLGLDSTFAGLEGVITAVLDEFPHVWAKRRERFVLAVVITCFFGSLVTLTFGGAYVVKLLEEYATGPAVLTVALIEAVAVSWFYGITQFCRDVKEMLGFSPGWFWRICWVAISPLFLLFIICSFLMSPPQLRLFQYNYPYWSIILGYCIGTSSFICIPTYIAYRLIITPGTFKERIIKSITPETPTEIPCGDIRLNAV
From the text: The procedures were adapted from previous studies, [3]. […] This transports the cells through the silicon oil layer to the KOH layer, thereby separating the cells from the buffer, which remains on top of the silicon oil layer. The centrifuge tubes were then transferred to liquid nitrogen. The amount of tracer that remained in the cells was quantified by cutting the frozen centrifuge tube above the KOH/oil interface and putting the tip of the tube with the cell pellet in a scintillation vial that contained 500 µl lysis buffer (0.05 M TRIS-HCl, 50 mM NaCl, 5 mM EDTA, and 1% Nonidet P-40 substitute in water). The samples were then shaken for 1 h on a rotary shaker, and 7 ml of scintillation fluid (Ultimagold, Perkin Elmer, Schwerzenbach, Switzerland) was added. Cell-associated radioactivity was then counted. […] Dose-response curves were generated using 9–11 concentrations of MDMA/MDA. […] All data points were derived from at least three independent experiments, each assayed in triplicate. The data were fit by non-linear regression, and EC50 and Emax values were calculated using Prism (GraphPad, San Diego, CA).

healthy subjects [4] = assay: Adverse effects, List of Complaints, clinical study
Experimental: as §1, §2, §3

healthy subjects [5] = assay: 5-Dimensions of Altered States of Consciousness (5D-ASC), clinical study; type: in vivo, humans; conditions: p<0.001
Experimental: as §1, §2
(§5) The psychometric measures included Visual Analog Scales (VAS), [10], the Adjective Mood Rating Scale (AMRS), and 5-Dimensions of Altered States of Consciousness (5D-ASC), [23]. […] The VASs were presented as 100 mm horizontal lines marked “not at all" on the left and “extremely" on the right. The VASs for “closeness to others," “open," and “talkative" were bidirectional (±50 mm). The VASs were administered 4 h before and 0, 0.33, 1, 1.5, 2, 2.5, 3, 3.5, 4, and 5 h after MDMA or placebo administration. […] The AMRS contains subscales for activity, extroversion and introversion, well-being, emotional excitation, anxiety-depression, and dreaminess. The 5D-ASC rating scale measures alterations in mood, perception, experience of self in relation to the environment, and thought disorder. The 5D-ASC rating scale comprises five subscales or dimensions and 11 lower-order scales. The 5D-ASC dimension “oceanic boundlessness" (OB, 27 items) measures derealization and depersonalization associated with positive emotional states, ranging from heightened mood to euphoric exaltation. […] The global ASC score was determined by adding the OB, AED, and VR scores. The 5D-ASC scale was administered 4 h after MDMA or placebo administration.

healthy subjects [6] = assay: Adjective Mood Rating Scale (AMRS), clinical study; type: in vivo, humans; conditions: peak change from baseline, mean±SEM, 16 subjects
Experimental: as §1, §2, §5, §4

patients = conditions: 60-120 mg/day; cited from earlier work
healthy subjects [7] = assay: Visual Analog Scales, subjective drug effects, clinical study; type: in vivo, humans; conditions: peak change from baseline, mean±SEM, 16 subjects
Experimental: as §1, §2, §5, §4

healthy subjects [8] = assay: Circulating plasma catecholamines, clinical study; type: in vivo, humans; conditions: peak change from baseline, mean±SEM, 16 subjects
Experimental: as §1, §2
(§6) Plasma concentrations of copeptin were also determined in this study as reported elsewhere. […] No hydrolysis was performed. Thus, the values for HMMA represent the drug concentrations of the non-conjugated metabolite. All blood samples were collected on ice and centrifuged within 10 min at 4°C. The plasma was then stored at –20°C until the analysis.

NE transporter [9] = conditions: read-out: Ki, NE transporter; rat cortex synaptosomes; cited from earlier work
DAT = conditions: cited from earlier work
clinical = conditions: human, in vivo
Experimental: as §2, §6
Cmax and tmax were obtained directly from the observed concentration-time curves. […] Terminal elimination half-life (t 1/2) was calculated using λz and the equation t1/2 = ln2/λz. The area under the plasma concentration-time curve up to 6 h (AUC0-6h) was calculated using the linear trapezoidal rule. The AUC0–∞ was determined by extrapolation of AUC0–6h using λz. The PK parameters were determined using the PK functions for Excel (Microsoft, Redmont, CA, USA). Plasma concentrations were only determined up to 6 h after MDMA administration because the aim of the study was to assess potential changes in MDMA plasma levels while relevant pharmacodynamic effects or MDMA were present.

Structure (SMILES): CNCC[C@H](Oc1cccc2ccccc12)c1cccs1 [Duloxetine]
- Mean Cmax at steady state ([1]; 40 mg once daily): 35 ng/mL
- Trough level at 24h at steady state ([1]; 40 mg once daily): approximately 10 ng/mL
- Increase of AUC ([1]; after pretreatment with paroxetine): 1.6 fold
- Elimination half-life [1]: 12 h
- Tmax [1]: 6 h
- Mean Cmax, population PK ([1]; daily 60 mg): 30 to 60 ng/mL
- Mean trough level at 24h, population PK ([1]; daily 60 mg): ~25 ng/mL
- Peak level at steady state ([1]; patients, daily 120 mg): 100 ng/mL
- Trough level at steady state ([1]; patients, daily 120 mg): 50 ng/mL
- Mean plasma Cmax ([1]; single oral dose 30 mg): 22 ng/mL
- Mean plasma Cmax ([1]; single oral dose 60 mg): 44 ng/mL
- Mean plasma Cmax ([1]; single oral dose 90 mg): 61 ng/mL
- DPB, Emax (healthy subjects [2]; diastolic blood pressure): 6.00±0.97 mm Hg
- MAP, Emax (healthy subjects [2]; mean arterial pressure): 5.11±1.01 mm Hg
- Heart rate, Emax (healthy subjects [2]): 5.06±1.27 beats/min
- SBP, Emax (healthy subjects [2]; systolic blood pressure): 6.19±1.42 mm Hg
- Body temperature, Emax (healthy subjects [2]; tympanic): 0.19±0.04 °C
- Block of thyramine-induced increases in systolic blood pressure (NE transporter [3]; 60 mg for 14 days): not able to block
- Suppression of blood pressure increase due to thyramine (NE transporter [3]; dose of 80-120 mg): effective in suppressing
- Effect on MDMA- and MDA-induced 5-HT release (SERT): completely blocked
- List of Complaints (total score), Acute adverse effects (healthy subjects [4]; at 3 h, change from baseline, mean±SEM, 16 subjects): −1.81±1.09
- List of Complaints (total score), Sub-acute adverse effects (healthy subjects [4]; at 24 h, change from baseline, mean±SEM, 16 subjects): −2.88±1.35
- Adverse effects produced (healthy subjects [4]; clinical study): daytime somnolence and moderate insomnia
- Effect on MDMA's effects on the total ASC score (healthy subjects [5]): robustly reduced
- AMRS Activity, Emin (healthy subjects [6]): −2.69±0.69
- AMRS Dreaminess, Emax (healthy subjects [6]): 1.35±0.35
- AMRS Emotional excitation, Emax (healthy subjects [6]): 0.69±0.27
- AMRS Extroversion, Emax (healthy subjects [6]): 0.38±0.16
- AMRS Introversion, Emax (healthy subjects [6]): 1.13±0.30
- AMRS Well-being, Emax (healthy subjects [6]): 0.38±0.16
- Incidence of constipation (patients): 11%
- Incidence of decreased appetite (patients): 8%
- Incidence of dizziness (patients): 9-11%
- Incidence of dry mouth (patients): 15-18%
- Incidence of fatigue (patients): 14%
- Incidence of headache (patients): 20%
- Incidence of insomnia (patients): 11-15%
- Incidence of nausea (patients): 20-29%
- Incidence of sweating (patients): 6%
- VAS Any drug effect, Emax (healthy subjects [7]): 6.00±2.52
- VAS Closeness, Emax (healthy subjects [7]): 0.00±0.00
- VAS Drug high, Emax (healthy subjects [7]): 4.81±2.93
- VAS Drug liking, Emax (healthy subjects [7]): 7.56±4.43
- VAS Good drug effect, Emax (healthy subjects [7]): 8.75±5.01
- VAS Open, Emax (healthy subjects [7]): 0.38±0.38
- VAS Stimulated, Emax (healthy subjects [7]): 5.13±2.45
- VAS Talkative, Emax (healthy subjects [7]): 0.31±0.31
- Circulating Epinephrine, Emax (healthy subjects [8]): 0.46 ± 0.10 nM
- Circulating Norepinephrine, Emax (healthy subjects [8]): -0.18 ± 0.07 nM
- Ki (NE transporter [9]): 2.1 nM
- Lower potency at DAT compared with SERT and NET (DAT): 10- to 100 fold
- Cmax (clinical): 112 ± 7.06 ng/mL
- concentration at 120 min (clinical): 314 ± 2.5 nM
- Cmax (clinical; 120 mg): 107 ± 10.2 ng/mL
- AUC(0-t) (clinical; AUC0-6): 800 ± 74.4 ng·h/mL
- AUC(0-inf) (clinical; AUC(0-∞)): 1960 ± 230 ng·h/mL
- Cmax (clinical; Plasma concentration Cmax, text of b61): 112 ng/mL and 380 nM
- half-life (clinical; T1/2): 11 ± 1.04 h
- Tmax (clinical; Tmax): 5.14 ± 0.29 h
